Assay results from ChEMBL document CHEMBL1629711, “Synthesis and in vitro biological evaluation of new polyamine conjugates as potential anticancer drugs” (Eur J Med Chem, 2010).
pIC50: −log10 of the molar value. Active and inactive are the calls of the source. The calls are words filed in the database; no cut-off is given here.

Tests used:
[1] = tested on: A-375; assay: Cytotoxicity against human A375 cells after 44 hrs by MTT assay; type: functional, cell-based; conditions: for pIC50: A-375, 44 h
[2] = tested on: A-375; assay: Induction of apoptosis in human A375 cells assessed as morphological changes at IC50 concentration after 44 hrs using acridine orange and ethidium bromide staining by fluorescence microscopy; type: functional, cell-based
[3] = tested on: A-375; assay: Induction of necrosis in human A375 cells assessed as morphological changes at IC50 concentration after 44 hrs using acridine orange and ethidium bromide staining by fluorescence microscopy; type: functional, cell-based
[4] = tested on: A-375; assay: Cell cycle arrest in human A375 cells assessed as accumulation at G2/M phase at 20 uM after 24 hrs using propidium iodide staining by flow cytometry relative to control; type: functional
[5] = tested on: A-375; assay: Cell cycle arrest in human A375 cells assessed as accumulation at S phase at 20 uM after 24 hrs using propidium iodide staining by flow cytometry relative to control; type: functional
[6] = tested on: A-375; assay: Induction of apoptosis in human A375 cells assessed as morphological changes at 50 uM after 44 hrs using acridine orange and ethidium bromide staining by fluorescence microscopy; type: functional
[7] = tested on: A-375; assay: Cell cycle arrest in human A375 cells assessed as accumulation at hypodiploid subG1 phase at 20 uM after 24 hrs using propidium iodide staining by flow cytometry relative to control; type: functional
[8] = tested on: A-375; assay: Cell cycle arrest in human A375 cells assessed as accumulation at G0/G1 phase at 20 uM after 24 hrs using propidium iodide staining by flow cytometry relative to control; type: functional
[9] = tested on: A-375; assay: Cytotoxicity against human A375 cells at 1 to 100 uM after 44 hrs by MTT assay; type: functional, cell-based
[10] = tested on: A-375; assay: Cell cycle arrest in human A375 cells assessed as accumulation at G2/M phase at 50 uM after 24 hrs using propidium iodide staining by flow cytometry relative to control; type: functional
[11] = tested on: A-375; assay: Cell cycle arrest in human A375 cells assessed as accumulation at S phase at 50 uM after 24 hrs using propidium iodide staining by flow cytometry relative to control; type: functional
[12] = tested on: A-375; assay: Cell cycle arrest in human A375 cells assessed as accumulation at G0/G1 phase at 50 uM after 24 hrs using propidium iodide staining by flow cytometry relative to control; type: functional
[13] = tested on: A-375; assay: Cell cycle arrest in human A375 cells assessed as accumulation at hypodiploid subG1 phase at 50 uM after 24 hrs using propidium iodide staining by flow cytometry relative to control; type: functional

Row | SMILES | inhibition [1] | pIC50 [1] | Activity [2] | Activity [3] | Activity [9] | further results
1 | CN(CCCNC(=O)c1cnc2ccccc2c1N)CCCNC(=O)c1cnc2ccccc2c1N | Dose-dependent effect | 4.06 | inactive | inactive | – | –
2 | Nc1c(C(=O)NCCCN2CCN(CCCNC(=O)c3cnc4ccccc4c3N)CC2)cnc2ccccc12 | Dose-dependent effect | 4.77 | inactive | inactive | – | Activity [4]: 21%; Activity [5]: 31%; Activity [6]: 30%; Activity [7]: 4%; Activity [8]: 49%
3 | Cc1ccc2nnc(C(=O)NCCCOCCCCOCCCNC(=O)c3nnc4ccc(C)cc4c3N)c(N)c2c1 | Dose-dependent effect | 4.00 | inactive | inactive | – | –
4 | O=C1c2ccccc2C(=O)N1CCCN1CCN(CCCN2C(=O)c3ccccc3C2=O)CC1 | – | – | – | – | inactive | –
5 | O=C1c2ccccc2C(=O)N1CCCOCCCCOCCCN1C(=O)c2ccccc2C1=O | – | – | – | – | inactive | –
6 | CN(CCCN1C(=O)c2ccccc2C1=O)CCCN1C(=O)c2ccccc2C1=O | – | – | – | – | inactive | –
7 | Cc1ccc2nnc(C(=O)NCCCN(C)CCCNC(=O)c3nnc4ccc(C)cc4c3N)c(N)c2c1 | Dose-dependent effect | 3.94 | inactive | inactive | – | –
8 | Cc1ccc2nnc(C(=O)NCCCN3CCN(CCCNC(=O)c4nnc5ccc(C)cc5c4N)CC3)c(N)c2c1 | Dose-dependent effect | 4.50 | inactive | inactive | – | Activity [4]: 46%; Activity [10]: 46%; Activity [11]: 22%; Activity [12]: 32%; Activity [5]: 19%; Activity [6]: 14%; Activity [7]: 4%; Activity [13]: 9%; Activity [8]: 35%
9 | Nc1c(C(=O)NCCCOCCCCOCCCNC(=O)c2cnc3ccccc3c2N)cnc2ccccc12 | Dose-dependent effect | 4.81 | inactive | inactive | – | Activity [4]: 20%; Activity [10]: 8%; Activity [11]: 53%; Activity [12]: 39%; Activity [5]: 22%; Activity [6]: 8%; Activity [7]: 2%; Activity [13]: 3%; Activity [8]: 58%
10 | O=C1c2cccc([N+](=O)[O-])c2C(=O)N1CCCOCCCCOCCCN1C(=O)c2cccc([N+](=O)[O-])c2C1=O | – | – | – | – | inactive | –
11 | CN(CCCN1C(=O)c2cccc([N+](=O)[O-])c2C1=O)CCCN1C(=O)c2cccc([N+](=O)[O-])c2C1=O | – | – | – | – | inactive | –
12 | O=C1c2cccc([N+](=O)[O-])c2C(=O)N1CCCN1CCN(CCCN2C(=O)c3cccc([N+](=O)[O-])c3C2=O)CC1 | – | – | – | – | inactive | –
